pIC50: −log10 of the molar value.

In series [1] the target is T1, cholesterol ester transfer protein (CETP) (Homo sapiens, UniProt P11597).
T1 sequence (P11597 18-493): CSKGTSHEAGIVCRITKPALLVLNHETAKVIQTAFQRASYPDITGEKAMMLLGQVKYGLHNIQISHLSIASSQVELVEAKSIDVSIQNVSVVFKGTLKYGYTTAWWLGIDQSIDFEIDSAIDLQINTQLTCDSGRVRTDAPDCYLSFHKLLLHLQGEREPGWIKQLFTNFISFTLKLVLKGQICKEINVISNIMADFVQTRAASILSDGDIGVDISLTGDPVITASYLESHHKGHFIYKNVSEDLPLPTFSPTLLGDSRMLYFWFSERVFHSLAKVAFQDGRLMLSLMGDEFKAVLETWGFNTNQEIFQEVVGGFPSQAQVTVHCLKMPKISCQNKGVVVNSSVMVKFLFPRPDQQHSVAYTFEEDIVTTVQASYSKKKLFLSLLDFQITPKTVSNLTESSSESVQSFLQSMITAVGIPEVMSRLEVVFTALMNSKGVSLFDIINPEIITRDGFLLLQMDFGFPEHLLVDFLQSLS
Kind of series: Inhibition of CETP, purified CETP preparation. It is filed as biochemical. The note with it: FIG. 3, FIG. 4. On the procedure:
The effect of compound 24 on inhibition of CETP was tested using a purified CETP preparation. CETP was purified and assayed according to procedures described in Tomada, H.; Tabata, N.; Shinose, M.; Takahashi Y.; Woodruff, H. B.; Omura, S. J. Antibiotics, 52: 1101-1107 (1999).

Series [2] has as its system cholesterol ester transfer protein (CETP). Kind of series: CETP activity, crude CETP preparation derived from hamster plasma. The following applies: in vitro. The format is biochemical. How it is done:
The inhibitory effect of compound 1 on the activity of cholesterol ester transfer protein (CETP) was measured, using a crude CETP preparation derived from hamster plasma.

In series [3] the test system is lymphatic absorption of cholesterol. Kind of series: Lymphatic absorption of 14C-cholesterol in lymph-cannulated rats infused with lipid emulsion. It is filed as in vivo, rat. On the procedure:
(§1) Ten male Sprague-Dawley rats (Harlan Sprague Dawley, Inc., Indianapolis, Ind.) weighing 274.3±7.8 grams were housed individually in plastic cages in an environmentally controlled room of illumination (12:12-h light/dark cycle with the dark period from 0330 to 1530), humidity (60-70%), and temperature (22-25° C.) throughout the study. Rats had free access to deionized water and a nutritionally adequate diet (Table 1) containing soybean oil as the fat source and egg white as the protein source. The diet was formulated according to AIN-93G recommendations (In: Trace Elements in Laboratory Rodents (Watson, R. R., ed.), pp. 3-37. CRC Press, Boca Raton, Fla.). Animals were cared for in an animal care facility accredited by the American Association for the Accreditation of Laboratory Animal Care. Rats were maintained in accordance with the policies and guidelines for animal care and use procedures of the Kansas State University Institutional Animal Care and Use Committee.
At 6 wk, rats were starved overnight for 17 h but allowed water ad libitum prior to the surgical placement of a lymph cannula and duodenal infusion catheter. The mesenteric lymph duct was cannulated as described in Koo et al., J. Nutr. 131: 717-722 (2001). Briefly, while rats were under anesthesia (2.0% halothane in 2.0 L O2/min delivered via a halothane vaporizer), a midline abdominal incision was made. […] The cannula was fixed in place with ethyl cyanoacrylate glue (Elmer's Products, Columbus, Ohio) and externalized through the right flank. An indwelling infusion catheter (Silastic® laboratory tubing, i.d. 1.0 mm, o.d. 2.2 mm; Dow Coming, Midland, Mich.) was introduced via the gastric fundus into the upper duodenum and secured in place with a purse-string suture (4-0 Silk, Ethicon, Somerville, N.J.) around the fundic incision. The infusion catheter was exteriorized alongside the lymph cannula. After the abdominal incision was closed, the rats were placed in restraining cages and housed in a recovery chamber at 30° C. for postoperative recovery for 22-24 h. During the recovery period, rats were infused continuously with glucose in phosphate buffered saline (PBS) (in mmol/L: 277 glucose, 6.75 Na2HPO4, 16.5 NaH2PO4, 115 NaCl, and 5 KCl; pH 6.7) v infusion catheter at 3.0 mL/h by a syringe pump (Harvard Apparatus, Model 935, South Natick, Mass.) to ensure adequate hydration and nutritional status of the animals.
After postoperative recovery, each rat was infused with a lipid emulsion at 3 mL/h for 8 h via the duodenal catheter in subdued light. The lipid emulsion consisted of 451.8 μmol triolein (95%, Sigma Chemical, St. Louis, Mo.), 33.3 kBq [4-^14C]-cholesterol (^14C-CH; specific activity, 1.85 GBq/mmol, American Radiolabeled Chemicals, St. Louis, Mo.), 20.7 μmol cholesterol, 3.1 μmol α-tocopherol (all-rac-dl-α-tocopherol, 97%, Aldrich Chemical, Milwaukee, Wis.) as an antioxidant, and 396.0 μmol sodium taurocholate (Sigma Chemical, St. Louis, Mo.) in 24 mL of PBS buffer, pH 6.5. For half of the rats, the lipid emulsion contained 114.9 μmol compound 1 (41.9 mg). Lipid emulsion was prepared under a gentle N2 stream and subdued light for 55 min using a microprocessor-controlled ultrasonicator equipped with a microtip (XL-2020 Ultrasonic Liquid Processor, Misonix, Farmingdale, N.Y.).
(§2) During the duodenal infusion of lipid emulsion, lymph samples were collected hourly in preweighed ice-chilled centrifuge tubes containing 4 mg Na2-EDTA and 30 μg n-propyl gallate (Sigma Chemical, St. Louis, Mo.) as antioxidants. A portion of each lymph sample (100 μL) was mixed with scintillation liquid (ScintiVerse; Fisher Scientific, Fair Lawn, N.J.) and counted by scintillation spectrometry (Beckman LS-6500; Beckman Instruments, Fullerton, Calif.). The total ^14C-radioactivity appearing in hourly lymph volume (the hourly rates of ^14C-CH absorption) was expressed as a percentage of the total radioactivity infused (% dose). All samples were ice chilled and handled in subdued light. […]

Series [4] relates to lymphatic absorption of oleic acid. Kind of series: Lymphatic absorption of oleic acid (triolein) in lymph-cannulated rats, fatty acid analysis of lymph. It is filed as in vivo, rat. How it is done: as §1, with “Animals were cared for in an animal care facility accredited by the American Association for the Accreditation of Laboratory Animal Care. Rats were maintained in accordance with the policies and guidelines for animal care and use procedures of the Kansas State University Institutional Animal Care and Use Committee.” left out
as §2, with “dose).” for “dose). All samples were ice chilled and handled in subdued light.”

Another series has as its system Sprague-Dawley rats. Kind of series: Observation of behaviour and visual examination of organs of infused rats. It is filed as in vivo, rat. An excerpt: Rats were sacrificed at the day end of the infusion, and the intestine and other organs were dissected and visually examined.
Where [5] appears, read: rats, 8 h duodenal infusion of lipid emulsion with 114.9 μmol (41.9 mg) compound 1, means ± SD, n = 5.

As to `C=Cc1ccc(OC(=O)c2ccc(O)c(N=O)c2)cc1.C=Cc1ccc(OC(=O)c2ccc(O)c(N=O)c2)cc1.C=Cc1ccc(OC(=O)c2ccc(O)c(N=O)c2)cc1.[Fe+2]` [Ferroverdin A, reference compound], in series [1], the pIC50 (usually the negative decadic logarithm of the IC50, by convention in mol/L) is about 4.66.

Turning to `CC1(C)CCC[C@]2(C)C3=Cc4c(cc(O)c(O)c4Cl)O[C@]3(C)CC[C@@H]12` [Compound 1, (4aS,6aR,12bS)-2H-11-Chloro-1,3,4,4a,5,6,6a,12b-octahydro-4,4,6a,12b-tetramethyl-benzo[a]xanthene-9,10-diol], the “dose above which HDL total cholesterol, HDL free cholesterol and HDL cholesterol ester increased” value in series [2] is “exceeded 250 μM”. Further, the “14C-cholesterol absorbed, cumulative” value is given as 0.12 ± 0.04 % dose in series [3] (1 h, rats, means ± SD, n = 5); 1.22 ± 0.25 % dose in series [3] (2 h, rats, means ± SD, n = 5); 2.70 ± 0.42 % dose in series [3] (3 h, rats, means ± SD, n = 5); 4.18 ± 0.92 % dose in series [3] (4 h, rats, means ± SD, n = 5); 5.68 ± 1.37 % dose in series [3] (5 h, rats, means ± SD, n = 5); 7.32 ± 1.78 % dose in series [3] (6 h, rats, means ± SD, n = 5). The “14C-cholesterol absorbed, cumulative” value in series [3] (7 h, rats, means ± SD, n = 5) amounted to 9.13 ± 2.41 % dose; in series [3] (8 h, rats, means ± SD, n = 5), 10.95 ± 3.29 % dose. This compound yielded a percent cholesterol absorption in series [3] (after 8 hours of treatment, 41.9 mg of compound 1, control 37.69%) of 10.95%. Also, the “total cholesterol absorption compared to control rats” value in series [3] (rats infused for eight hours) is recorded as “significantly less”. The same compound gave a 14C-CH absorption in series [3] (setting [5]) of 10.95 ± 3.29 % dose/8 h. The “absorption of triolein compared to control rats” value in series [4] (rats infused for eight hours) is on record as “significantly less”. In addition, the “Oleic acid absorbed in lymph” value in series [4] (setting [5]) came out at 253 ± 79 μmol/8 h. The “abnormalities of intestine and other organs, visual examination” value in the series with Sprague-Dawley rats (rats sacrificed at end of infusion) is on record as “No abnormalities were found”. For the same compound, in the series with Sprague-Dawley rats (rats, 8 h infusion), the “gross motor or behavioral abnormalities” value was “no gross motor or behavioral abnormalities”.

In the case of `CC1(C)CCC[C@]2(C)C3=CC4=C(Cl)C(=O)C(=O)C=C4O[C@]3(C)CC[C@@H]12` [Compound 24, (4aS,6aR,12aR,12bS)-2H-11-Chloro-1,3,4,4a,5,6,6a,9,10,12b-decahydro-4,4,6a,12b-tetramethyl-benzo[a]xanthene-9,10-dione], in series [1], the negative logarithm of the IC50 (pIC50) is 4.51.

(Values after patent US6727277B1, “Compounds affecting cholesterol absorption” (Kansas State University Research Foundation, priority 2002, dated 2004).)
